Biological target: T1, IGF-1R (Homo sapiens, UniProt P08069)
T1 construct: Cultivated human tumour cells which express the IGF1 receptor (IGF1R); endogenous in cells
Test: Inhibition of IGF-1R (IC50): IGF1-stimulated IGF1R autophosphorylation in human tumour cells, Capture-ELISA or LUMINEX
Type: cell-based
Conditions: Table 1; human tumour cells expressing IGF1R (for example MCF-7 or Calu-6), 45 min pre-treatment, 5 min IGF1 stimulation
Description: Cultivated human tumour cells which express the IGF1 receptor (IGF1R) (for example MCF-7 or Calu-6) are stimulated using human IGF1, the natural ligand of IGF1R. The stimulation induces autophosphorylation of tyrosine residues in the cytoplasmatic IGF1R domain, which triggers signal transduction cascades, which result in apoptosis inhibition and cell proliferation.
The amount of phosphorylated IGF1R is determined by a receptor-specific Capture-ELISA or an analogous LUMINEX assay. The IGF1R from cell lysates is bound to a 96-well ELISA plate or LUMINEX beads (“capturing”) by means of a specific antibody, and the tyrosine phosphorylation is detected using a biotin-labelled anti-phosphotyrosine antibody and a streptavidin peroxidase conjugate by a chemoluminescence method or by means of a fluorescence-labelled anti-phosphotyrosine antibody.
In order to determine the activity of kinase inhibitors, cells are pre-treated with increasing concentrations of these compounds for 45 min and subsequently stimulated using IGF1 for 5 min. As internal control, the biological activity of the ligand IGF1 is checked and a concentration series of an IGF1R reference inhibitor measured.

T1 sequence (P08069 31-1367): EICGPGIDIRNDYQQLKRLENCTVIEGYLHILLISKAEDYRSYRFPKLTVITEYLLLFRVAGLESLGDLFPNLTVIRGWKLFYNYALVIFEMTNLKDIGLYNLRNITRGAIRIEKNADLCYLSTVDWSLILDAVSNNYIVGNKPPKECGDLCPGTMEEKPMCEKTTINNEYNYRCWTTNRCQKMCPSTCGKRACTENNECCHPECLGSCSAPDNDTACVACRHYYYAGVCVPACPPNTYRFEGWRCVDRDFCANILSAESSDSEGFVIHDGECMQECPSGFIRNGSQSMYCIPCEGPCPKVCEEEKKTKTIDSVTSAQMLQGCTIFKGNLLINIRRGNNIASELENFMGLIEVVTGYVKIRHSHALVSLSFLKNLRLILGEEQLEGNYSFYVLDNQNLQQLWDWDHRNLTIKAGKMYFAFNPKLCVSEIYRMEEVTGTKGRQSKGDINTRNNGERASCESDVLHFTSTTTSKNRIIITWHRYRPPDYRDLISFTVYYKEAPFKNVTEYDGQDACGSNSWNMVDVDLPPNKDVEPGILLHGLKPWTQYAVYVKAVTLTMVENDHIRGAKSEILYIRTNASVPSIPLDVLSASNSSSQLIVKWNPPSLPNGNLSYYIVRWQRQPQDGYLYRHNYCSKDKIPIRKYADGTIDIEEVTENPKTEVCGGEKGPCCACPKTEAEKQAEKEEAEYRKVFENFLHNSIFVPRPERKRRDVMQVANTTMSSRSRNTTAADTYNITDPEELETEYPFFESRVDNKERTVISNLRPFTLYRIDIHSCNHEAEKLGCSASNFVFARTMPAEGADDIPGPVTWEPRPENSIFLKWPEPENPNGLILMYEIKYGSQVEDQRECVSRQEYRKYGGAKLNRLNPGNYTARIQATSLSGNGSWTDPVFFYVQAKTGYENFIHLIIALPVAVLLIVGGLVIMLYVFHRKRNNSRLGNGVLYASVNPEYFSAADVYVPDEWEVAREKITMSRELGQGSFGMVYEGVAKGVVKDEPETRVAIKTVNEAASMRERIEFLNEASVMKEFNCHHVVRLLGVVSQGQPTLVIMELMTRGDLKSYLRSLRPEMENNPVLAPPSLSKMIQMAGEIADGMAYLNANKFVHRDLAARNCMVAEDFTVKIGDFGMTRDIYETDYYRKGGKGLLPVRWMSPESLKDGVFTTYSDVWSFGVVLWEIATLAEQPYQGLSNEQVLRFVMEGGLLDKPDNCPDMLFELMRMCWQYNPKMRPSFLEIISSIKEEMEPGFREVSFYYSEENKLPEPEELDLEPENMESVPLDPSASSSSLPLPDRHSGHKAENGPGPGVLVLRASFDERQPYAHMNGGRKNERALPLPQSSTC

In the case of O=C(c1ccc(Nc2ccnc(Cl)n2)cc1)c1cccc2cc[nH]c12, the IC50 is reported as 2.6 µM.

Compound O=C(c1ccc(Nc2ccnc(Cl)n2)cc1)c1cccc2c1NCC2 has an IC50 of 7.85 µM.

In the case of O=C(c1ccc(Nc2nccc(NCc3cccnc3)n2)cc1)c1cccc2c1NCC2, the IC50 is reported as 2.4 µM.

With COc1cc(Nc2nccc(Nc3ccc(C(=O)c4cccc5cc[nH]c45)cc3)n2)cc(OC)c1OC the IC50 was 2.2 µM.

O=C(c1ccc(Nc2ccnc(Nc3ccc(C(=O)c4cccc5cc[nH]c45)cc3)n2)cc1)c1cccc2cc[nH]c12 gave an IC50 of 1.8 µM.

For N#Cc1c[nH]c2c(C(=O)c3ccc(Nc4ccnc(Nc5ccc(C(=O)c6cccc7c(C#N)c[nH]c67)cc5)n4)cc3)cccc12, the IC50 was 0.49 µM.

For N#CCCNc1nccc(Nc2ccc(C(=O)c3cccc4cc[nH]c34)cc2)n1, the IC50 was 3.1 µM.

O=C(c1ccc(Nc2ccnc(NCC3CC(O)C3)n2)cc1)c1cccc2cc[nH]c12 (stereo not drawn) showed an IC50 of 1.2 µM.

With O=C(c1ccc(Nc2ccnc(Nc3ncc[nH]3)n2)cc1)c1cccc2cc[nH]c12 the IC50 was 0.15 µM.

Compound O=C(c1c[nH]nc1Nc1nccc(Nc2cnc3ccccc3c2)n1)c1cccc2cc[nH]c12 has an IC50 of 0.63 µM.

With O=C(c1ccc(Nc2ccnc(Nc3cc(-c4ccccc4)[nH]n3)n2)cc1)c1cccc2cc[nH]c12 the IC50 was 10 µM.

Cc1cc(Nc2nccc(Nc3ccc(C(=O)c4cccc5cc[nH]c45)cc3)n2)n[nH]1 showed an IC50 of 2.9 µM.

With O=C(c1ccc(Nc2ccnc(Nc3cc(-c4ccco4)[nH]n3)n2)cc1)c1cccc2cc[nH]c12 the IC50 was 15 µM.

Compound CC(C)(C)c1cc(Nc2nccc(Nc3ccc(C(=O)c4cccc5cc[nH]c45)cc3)n2)n[nH]1 has an IC50 of 12 µM.

O=C(c1ccc(Nc2ccnc(Nc3cc[nH]n3)n2)cc1)c1cccc2cc[nH]c12 was tested, and the IC50 was 2.4 µM.

Reference: patent publication US8114882B2, “(1H-indol-7-yl)-(pyrimidin-2-ylamino)methanone derivatives and related compounds as IGF-R1 inhibitors for the treatment of cancer” (Merck Patent GmbH, priority 2005, dated 2012)
